Measurements published in BindingDB's records for patent US20240262826 (Blueprint Medicines, 2024).

biological target: Mast/stem cell growth factor receptor Kit (Homo sapiens, UniProt P10721); test: Biochemical Phospho c-Kit Inhibition Assay
Experimental: For the PathScan phospho c-kit (Tyr719) sandwich ELISA: M-07e cells were resuspended at 2×10^6 cells/mL in phenol red free, serum-free, GM-CSF-free Iscove's Modified Dulbecco's Medium (IMDM) media with 1% Penicillin-Streptomycin. The cells were then dispensed into the wells of a U-bottom, 96-well plate at 50 uL per well using a multichannel pipet. The plate was allowed to incubate at 37° C. in a humidified tissue culture incubator for 4 hours.After 4 hours of incubation, each well was dosed with 6.25 uL of test compound at a final DMSO concentration of 0.25% for 60 min at 37° C. to generate an 8-point dose concentration series of test compounds in duplicate. Cells were then incubated for 1 hour at 37° C. in a humidified tissue culture incubator. Next, human SCF at 500 ng/mL was added to the appropriate wells at 6.25 uL/well and the plate was shaken at 450 rpm at room temperature for 10 minutes. AlphaLISA 5× Lysis Buffer supplemented with 1× protease and phosphatase inhibitor was then added at 16 uL/well. The plate was sealed with an adherent cover and shaken at 4° C. at 600 rpm for 30 minutes. After this period of lysis, the plate was stored at −80° C. When the 96-well plate containing M07e lysates was ready to be processed, the plate was brought to room temperature and 40 μl from each well was transferred to the wells of a PathScan Phospho-c-Kit (Tyr719) Sandwich ELISA plate (CST, Catalog #7298). The ELISA plate was sealed with an adherent cover and incubated for 2 hours at 37° C. Next, the wells were washed 4 times with the provided 1× Wash Buffer, and 100 uL/well of reconstituted Detection Antibody was added to each well, the plate sealed with an adherent cover, and incubated at 37° C. for 1 hour. The wash procedure was repeated and 100 uL/well of reconstituted HRP-Linked secondary antibody was added. The plate was sealed with an adherent cover and incubated at 37° C. for 1 hour. The wash procedure was repeated and 100 uL/well of TMB Substrate was added. The plate was incubated for 10 minutes at room temperature or until the positive reaction elicited a blue color in the appropriate wells. 100 uL/well of STOP solution was added and shaken gently for a few seconds a microplate reader or conventional spectrophotometer e.g., a Perkin Elmer Envision multimode plate reader, part #2105-0010.

Chain of Mast/stem cell growth factor receptor Kit (P10721 whole entry): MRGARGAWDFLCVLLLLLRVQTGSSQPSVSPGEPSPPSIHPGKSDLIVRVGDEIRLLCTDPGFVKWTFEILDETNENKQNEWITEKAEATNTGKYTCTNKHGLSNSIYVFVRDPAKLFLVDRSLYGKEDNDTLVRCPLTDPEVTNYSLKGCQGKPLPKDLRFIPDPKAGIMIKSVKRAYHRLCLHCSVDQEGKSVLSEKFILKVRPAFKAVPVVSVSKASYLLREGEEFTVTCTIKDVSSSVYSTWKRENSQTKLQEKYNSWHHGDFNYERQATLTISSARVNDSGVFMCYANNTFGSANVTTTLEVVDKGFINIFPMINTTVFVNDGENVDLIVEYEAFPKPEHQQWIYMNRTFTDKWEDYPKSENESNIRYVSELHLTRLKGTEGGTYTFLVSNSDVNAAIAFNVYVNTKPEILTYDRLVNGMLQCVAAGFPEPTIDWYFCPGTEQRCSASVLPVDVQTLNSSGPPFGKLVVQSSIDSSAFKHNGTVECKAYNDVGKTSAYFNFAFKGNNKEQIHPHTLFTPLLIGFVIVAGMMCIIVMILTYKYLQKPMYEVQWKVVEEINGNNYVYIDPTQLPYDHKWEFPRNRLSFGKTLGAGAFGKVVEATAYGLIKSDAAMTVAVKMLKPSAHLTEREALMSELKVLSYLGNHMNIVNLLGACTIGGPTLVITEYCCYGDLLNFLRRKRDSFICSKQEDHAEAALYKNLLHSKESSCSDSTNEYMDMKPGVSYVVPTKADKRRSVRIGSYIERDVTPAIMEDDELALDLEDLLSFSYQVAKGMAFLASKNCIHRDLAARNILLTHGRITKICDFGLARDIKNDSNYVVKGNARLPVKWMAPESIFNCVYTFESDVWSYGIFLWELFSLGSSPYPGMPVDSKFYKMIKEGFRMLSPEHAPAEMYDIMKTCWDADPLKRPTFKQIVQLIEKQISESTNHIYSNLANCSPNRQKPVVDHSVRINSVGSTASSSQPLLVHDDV

First: Cc1ccc(-c2nnn(C3CC(F)(F)C3)n2)cc1NC(=O)c1cnn2ccc(N3CC[C@H]3CO)cc12 [US20240262826, Compound 104]
Second: O=C(Nc1cc(-c2nnn(C3CC(F)(F)C3)n2)c(Cl)cc1Cl)c1cnn2ccc(N3CCOCC3)cc12 [US20240262826, Compound 167]
The IC50 of the first is 2.1-fold lower: 3.5 nM for the first, 7.3 nM for the second. The first is the more potent here.

First: Cc1ccc(-c2nnn(CCOCC(F)(F)F)n2)cc1NC(=O)c1cnn2ccc(-c3cn[nH]c3)cc12 [US20240262826, Compound 197]
Second: Cc1cnn(-c2ccc(C)c(NC(=O)c3cnn4ccc(-c5cnn(C[C@H]6CNCCO6)c5)cc34)c2)n1 [US20240262826, Compound 205]
The IC50 of the first is 5.9-fold lower: 1.4 nM for the first, 8.2 nM for the second.

Work on `COCCOC[C@@H](O)Cn1cc(-c2ccn3ncc(C(=O)Nc4cc(-c5nnn(C6CC6)n5)c(C)cc4Cl)c3c2)cn1` [US20240262826, Compound 261] yielded an IC50 of 1.7 nM.
